Patent US20090246169A1, “INDOLOPYRIDINES AS EG5 KINESIN MODULATORS” (priority 2006, published 2009)

biological target: T1, Eg5 kinesin motor domains (Homo sapiens, UniProt P52732); experiment: Eg5 ATPase activity assay (Malachite green); assay type: biochemical; conditions: 300 μM ATP, 250 nM microtubules, 30 min room temperature, read-out: Inhibition of Eg5 activity, −log IC50 [mol/l] (converted)
T1 construct: The ATPase activity of Eg5 kinesin motor domains (Cytoskeleton, cat. No. EG01); purchased Cytoskeleton EG01
T1 sequence (P52732 18-359 limits assumed): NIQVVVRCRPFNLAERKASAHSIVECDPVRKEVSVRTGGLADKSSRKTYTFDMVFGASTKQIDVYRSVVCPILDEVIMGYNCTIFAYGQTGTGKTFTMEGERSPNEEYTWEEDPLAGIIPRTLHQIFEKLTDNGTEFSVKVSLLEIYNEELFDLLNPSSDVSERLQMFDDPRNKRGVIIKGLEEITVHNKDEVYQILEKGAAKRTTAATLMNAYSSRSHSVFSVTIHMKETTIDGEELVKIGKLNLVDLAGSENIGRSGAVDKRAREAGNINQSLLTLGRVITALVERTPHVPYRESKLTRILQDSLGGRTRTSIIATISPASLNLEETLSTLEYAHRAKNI
Experimental: The ATPase activity of Eg5 kinesin motor domains (Cytoskeleton, cat. No. EG01) can be used to monitor the effects of modulating agents. The test compounds are dissolved as 10 mM solutions in dimethylsulfoxide (DMSO). 2 μl of appropriate DMSO dilutions of the test compounds are added to each well of a 96 well flat bottom plate. Each compound dilution is tested as triplicates. The reagents are added and the final reaction of the standard assay contains 15 mM Pipes, pH 6.8, 5.0 mM MgCl2, 0.5 mM KCl, 1 mM EGTA, 0.1 mg/ml BSA, 1 μM Paclitaxel, 250 nM preformed microtubules (Cytoskeleton, cat. No. MT001), 300 μM ATP, and Eg5 protein (50 ng) in a reaction volume of 100 μl. The controls include buffer wells with ATP and 2% DMSO. Reactions are started by the addition of ATP, incubated at room temperature for 30 min., and terminated by removing 20 μl of the reaction volume and adding it to 80 μl of 1 M perchloric acid, followed by the addition of 80 μl Malachite green reagent. […] The reactions are incubated for a further 20 min. and then read at 615 nm.
The corresponding IC50 values of the compounds for Eg5 inhibition are determined from the concentration-effect curves.
Representative inhibitory values [measured as −log IC50 (mol/l)] determined in the aforementioned assay follow from the following table A, in which the numbers of the compounds correspond to the numbers of the examples.

IC50 [µM]	SMILES
0.0316	COc1ccc2[nH]c3c(c2c1)C[C@@]1(C)C(=O)N(CCN(C)C)C(=O)N1[C@@H]3c1ccccc1 (racemic) [Example 1, (3aSR,10RS)-2-(2-Dimethylamino-ethyl)-6-methoxy-3a-methyl-10-phenyl-3a,4,9,10-tetrahydro-2,9,10a-triaza-cyclopenta[b]fluorene-1,3-dione]

tested on: RKO p21 colon adenocarcinoma cells, uninduced (proliferating); experiment: Alamar Blue cell viability assay, RKO p21 uninduced (proliferating); assay type: cell-based; conditions: Homo sapiens; anti-proliferative/cytotoxic activity, 72 hours, without Ponasterone A; read-out: −log EC50 [mol/l] RKO p21 uninduced (proliferating) (converted)
Summary of the method: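 Proliferating RKO subclones, no Ponasterone A inducer, seeded in DMEM/10% FCS and dosed after 24 h with semi-log dilutions in triplicate, 72 h at 37 °C, 5% CO2. Viability by Alamar Blue fluorescence (544/590 nm) vs untreated cells; EC50 from dose-response curves.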

SMILES	EC50 [µM]
COc1ccc2[nH]c3c(c2c1)C[C@@]1(C)C(=O)N(CCCNCCO)C(=O)N1[C@@H]3c1ccccc1 (racemic) [Example 75, (3aSR, 10RS)-2-[3-(2-Hydroxy-ethylamino)-propyl]-6-methoxy-3a-methyl-10-phenyl-3a,4,9,10-tetrahydro-2,9,10a-triaza-cyclopenta[b] fluorene-1,3-dione]	≤ 1
COc1ccc2[nH]c3c(c2c1)C[C@@]1(C)C(=O)N(CCN2CC=CC2)C(=O)N1[C@@H]3c1ccccc1 (racemic) [Example 31, (3aSR, 10RS)-2-[2-(2,5-Dihydro-pyrrol-1-yl)-ethyl]-6-methoxy-3a-methyl-10-phenyl-3a,4,9,10-tetrahydro-2,9,10a-triaza-cyclopenta[b] fluorene-1,3-dione]	≤ 1
COc1ccc2[nH]c3c(c2c1)C[C@@]1(C)C(=O)N(CCN2CC=CCC2)C(=O)N1[C@@H]3c1ccccc1 (racemic) [Example 33, (3aSR, 10RS)-2-[2-(3,6-Dihydro-2H-pyridin-1-yl)-ethyl]-6-methoxy-3a-methyl-10-phenyl-3a,4,9,10-tetra-hydro-2,9,10a-triaza-cyclo-penta[b]fluorene-1,3-dione]	≤ 1
COc1ccc2[nH]c3c(c2c1)C[C@@]1(C)C(=O)N(CCN)C(=O)N1[C@@H]3c1ccccc1 (racemic) [Example 13, (3aSR,10RS)-2-(2-Amino-ethyl)-6-methoxy-3a-methyl-10-phenyl-3a,4,9,10-tetrahydro-2,9,10a-triaza-cyclopenta[b]fluorene-1,3-dione]	≤ 1
COc1ccc2[nH]c3c(c2c1)C[C@@]1(C)C(=O)N(CCNC2CC2)C(=O)N1[C@@H]3c1ccccc1 (racemic) [Example 49, (3aSR, 10RS)-2-(2-Cyclo-propylamino-ethyl)-6-methoxy-3a-methyl-10-phenyl-3a,4,9,10-tetrahydro-2,9,10a-triaza-cyclopenta [b]fluorene-1,3-dione]	≤ 1
COc1ccc2[nH]c3c(c2c1)C[C@@]1(C)C(=O)N(CCCN)C(=O)N1[C@@H]3c1ccccc1 (racemic) [Example 7, (3aSR,10RS)-2-(3-Amino-propyl)-6-methoxy-3a-methyl-10-phenyl-3a,4,9,10-tetrahydro-2,9,10a-triaza-cyclopenta[b]fluorene-1,3-dione]	≤ 1
COc1ccc2[nH]c3c(c2c1)C[C@@]1(C)C(=O)N(CCCN2CC=CC2)C(=O)N1[C@@H]3c1ccccc1 (racemic) [Example 64, (3aSR, 10RS)-2-[3-(2,5-Dihydro-pyrrol-1-yl)-propyl]-6-methoxy-3a-methyl-10-phenyl-3a,4,9,10-tetrahydro-2,9,10a-triaza-cyclopenta [b]fluorene-1,3-dione]	≤ 1
COc1ccc2[nH]c3c(c2c1)C[C@@]1(C)C(=O)N(CCN2CCN(C(C)=O)CC2)C(=O)N1[C@@H]3c1ccccc1 (racemic) [Example 47, (3aSR, 10RS)-2-[2-(4-Acetyl-piperazin-1-yl)-ethyl]-6-methoxy-3a-methyl-10-phenyl-3a,4,9,10-tetrahydro-2,9,10a-triaza-cyclopenta[b] fluorene-1,3-dione]	≤ 1
CCNCCN1C(=O)N2[C@H](c3ccccc3)c3[nH]c4ccc(OC)cc4c3C[C@@]2(C)C1=O (racemic) [Example 15, (3aSR,10RS)-2-(2-Ethylamino-ethyl)-6-methoxy-3a-methyl-10-phenyl-3a,4,9,10-tetrahydro-2,9,10a-triaza-cyclopenta[b]fluorene-1,3-dione]	≤ 1
COc1ccc2[nH]c3c(c2c1)C[C@@]1(C)C(=O)N(CCN2CCCC2)C(=O)N1[C@@H]3c1ccccc1 (racemic) [Example 3, (3aSR,10RS)-6-Methoxy-3a-methyl-10-phenyl-2-(2-pyrrolidin-1-yl-ethyl)-3a,4,9,10-tetrahydro-2,9,10a-triaza-cyclopenta[b]fluorene-1,3-dione]	≤ 1
CCNCCCN1C(=O)N2[C@H](c3ccccc3)c3[nH]c4ccc(OC)cc4c3C[C@@]2(C)C1=O (racemic) [Example 44, (3aSR, 10RS)-2-(3-Ethyl-amino-propyl)-6-methoxy-3a-methyl-10-phenyl-3a,4,9,10-tetrahydro-2,9,10a-triaza-cyclopenta[b]fluorene-1,3-dione]	≤ 1
COc1ccc2[nH]c3c(c2c1)C[C@@]1(C)C(=O)N(CCN2CCCCC2)C(=O)N1[C@@H]3c1ccccc1 (racemic) [Example 32, (3aSR, 10RS)-6-Methoxy-3a-methyl-10-phenyl-2-(2-piperidin-1-yl-ethyl)-3a,4,9,10-tetrahydro-2,9,10a-triaza-cyclopenta[b]fluorene-1,3-dione]	≤ 1
COc1ccc2[nH]c3c(c2c1)C[C@@]1(C)C(=O)N(CCN(C)C(C)C)C(=O)N1[C@@H]3c1ccccc1 (racemic) [Example 39, (3aSR, 10RS)-2-[2-(Isopropyl-methyl-amino)-ethyl]-6-methoxy-3a-methyl-10-phenyl-3a,4,9,10-tetra-hydro-2,9,10a-triaza-cyclo-penta[b]fluorene-1,3-dione]	≤ 1

tested on: RKO p27 colon adenocarcinoma cells, induced (arrested); experiment: Alamar Blue cell viability assay, RKO p27 induced (arrested) by Ponasterone A; assay type: cell-based; conditions: Homo sapiens, RKOp27; anti-proliferative/cytotoxic activity, 72 hours, 10 μM Ponasterone A; read-out: −log EC50 [mol/l] RKO p27 induced (arrested) (converted)
Experimental: To determine the cell cycle specific mode of action, subclones of RKO colon adenocarcinoma cells (RKOp21 or RKOp27 as described by Schmidt et al. in Oncogene 19, 2423-2429; 2000) are seeded into 96 well flat bottom plates at a density of 16000 cells per well in a volume of 50 μl per well in DMEM growth medium with 10% FCS containing 10 μM Ponasterone A. 24 hours after seeding the 50 μl each of the compound dilutions in DMEM medium are added into each well of the 96-well plate. Each compound dilution is tested as triplicates. Wells containing untreated control cells are filled with 50 μl DMEM medium containing 1% DMSO. The cells are then incubated with the substances for 72 hours at 37° C. in a humidified atmosphere containing 5% carbon dioxide. To determine the viability of the cells, 10 μl of an Alamar Blue solution (Biosource) are added and the fluorescence is measured at an extinction of 544 nm and an emission of 590 nm. […] Viabilities are expressed as % values. […]
Representative values for anti-proliferation/cytotoxicity [measured as −log EC50 (mol/l)] determined in the aforementioned assays follow from the following tables B1 and B2, in which the numbers of the compounds correspond to the numbers of the examples.

SMILES	EC50 [µM]
COc1ccc2[nH]c3c(c2c1)C[C@@]1(C)C(=O)N(CCN(C)C)C(=O)N1[C@@H]3c1ccccc1 (racemic) [Example 1, (3aSR,10RS)-2-(2-Dimethylamino-ethyl)-6-methoxy-3a-methyl-10-phenyl-3a,4,9,10-tetrahydro-2,9,10a-triaza-cyclopenta[b]fluorene-1,3-dione]	≥ 10

tested on: RKO p27 colon adenocarcinoma cells, uninduced (proliferating); experiment: Alamar Blue cell viability assay, RKO p27 uninduced (proliferating); assay type: cell-based; conditions: Homo sapiens, RKOp27; anti-proliferative/cytotoxic activity, 72 hours, without Ponasterone A; read-out: −log EC50 [mol/l] RKO p27 uninduced (proliferating) (converted)
Experimental: The anti-proliferative/cytotoxic activity of the compounds described herein can be tested on subclones of RKO human colon adenocarcinoma cells (Schmidt et al., Oncogene 19, 2423-2429; 2000) using the Alamar Blue cell viability assay (described in O'Brien et al. Eur J Biochem 267, 5421-5426, 2000). The compounds are dissolved as 10 mM solutions in DMSO and subsequently diluted in semi-logarithmic steps. DMSO dilutions are further diluted 1:100 into Dulbecco's modified Eagle's medium (DMEM) containing 10% fetal calf serum to a final concentration twice as much as the final concentration in the test. […] To determine the viability of the cells, 10 μl of an Alamar Blue solution (Biosource) are added and the fluorescence is measured at an extinction of 544 nm and an emission of 590 nm. […] Viabilities are expressed as % values. […]
To determine the cell cycle specific mode of action, subclones of RKO colon adenocarcinoma cells (RKOp21 or RKOp27 as described by Schmidt et al. in Oncogene 19, 2423-2429; 2000) are seeded into 96 well flat bottom plates at a density of 16000 cells per well in a volume of 50 μl per well in DMEM growth medium with 10% FCS containing 10 μM Ponasterone A. 24 hours after seeding the 50 μl each of the compound dilutions in DMEM medium are added into each well of the 96-well plate. […] Viabilities are expressed as % values. […]

SMILES	EC50 [µM]
COc1ccc2[nH]c3c(c2c1)C[C@@]1(C)C(=O)N(CCN(C)C)C(=O)N1[C@@H]3c1ccccc1 (racemic) [Example 1, (3aSR,10RS)-2-(2-Dimethylamino-ethyl)-6-methoxy-3a-methyl-10-phenyl-3a,4,9,10-tetrahydro-2,9,10a-triaza-cyclopenta[b]fluorene-1,3-dione]	0.0631
